A short description of data set [1]: Storage stability of ready-to-use micafungin sodium solution in vials at 2-8° C. (purity and impurities by RRT). It is filed as physicochemical. The conditions noted are these: API (drug substance used). How it is done: As used herein, “relative retention time” (“RRT”) is calculated by dividing the retention time of the peak of interest by the retention time of the main peak. Any peak with an RRT<1 elutes before the main peak, and any peak with an RRT>1 elutes after the main peak. […]

The conditions of data set [2]: cited from earlier work.

Several values for one entry are separate records, joined by “and”; a condition that tells them apart may be missing. Equal values may be shown once. Read-outs that look alike come from different tables or passages of the source. Starred links: 1 amine or outer side, 2 acyl side, 3 side chain; linkers in the order of their positions; H or OH if unused. Positions of bridges follow the written chain, without caps; N, C: chain ends. Non-standard residues stand in square brackets, D forms with d. Residues, ends and D or L forms follow the SMILES beside them. *: point of attachment. hTyr(3S-OH,4S-OH,3'-OSO3H) = N[C@H](C(=O)O)[C@H](O)[C@@H](O)c1ccc(O)c(OS(=O)(=O)O)c1; Orn(4R-OH,5R-OH) = O=C([C@H](C[C@@H](O)[C@@H](O)N[*:3])N[*:1])[*:2]; Pro(3S-OH,4S-Me) = C[C@H]1CN[C@H](C(=O)O)[C@H]1O; X1 = CCCCCOc1ccc(-c2cc(-c3ccc(C(=O)*)cc3)no2)cc1; Gln(3R-OH) = NC(=O)C[C@@H](O)[C@H](N)C(=O)O; Hyp = O=C(O)[C@@H]1C[C@@H](O)CN1

Regarding `CCCCCOc1ccc(-c2cc(-c3ccc(C(=O)N[C@H]4C[C@@H](O)[C@@H](O)NC(=O)[C@@H]5[C@@H](O)[C@@H](C)CN5C(=O)[C@H]([C@H](O)CC(N)=O)NC(=O)[C@H]([C@H](O)[C@@H](O)c5ccc(O)c(OS(=O)(=O)O)c5)NC(=O)[C@@H]5C[C@@H](O)CN5C(=O)[C@H]([C@@H](C)O)NC4=O)cc3)no2)cc1` [Micafungin sodium, {5-[(1S,2S)-2-[(3S,6S,9S,11R,15S,18S,20R,21R,24S,25S,26S)-3-[(1R)-2-carbamoyl-1-hydroxyethyl]-11,20,21,25-tetrahydroxy-15-[(1R)-1-hydroxyethyl]-26-methyl-2,5,8,14,17,23-hexaoxo-18-[(4-{5-[4-(pentyloxy)phenyl]-1,2-oxazol-3-yl)benzene)amido]-1,4,7,13,16,22-hexaazatricyclo[22.3.0.0.0^9,13]heptacosan-6-yl]-1,2-dihydroxyethyl]-2-hydroxyphenyl} oxidanesulfonic acid] (X1-[Orn(4R-OH,5R-OH)]T[Hyp][hTyr(3S-OH,4S-OH,3'-OSO3H)][Gln(3R-OH)][Pro(3S-OH,4S-Me)]; lactam 1-C), the “Imp at RRT 1.02” value in data set [1] came to 0.24. The “Imp at RRT 0.93” value in data set [1] (listed as API) is 0.64 and 0.58. In addition, the “Imp. E” value in data set [1] (listed as API) is 0.01 and 0.02. Also, the Purity in data set [1] (listed as API) is 99.25 and 98.97. In addition, the Solubility result is “freely soluble” in data set [2] (N,N-dimethylformamide); “practically insoluble” in data set [2] (acetone); “practically insoluble” in data set [2] (acetonitrile); “practically insoluble” in data set [2] (diethyl ether); “freely soluble” in data set [2] (dimethylsulfoxide); “practically insoluble” in data set [2] (ethyl alcohol (95%)). The Solubility entry in data set [2] (isotonic sodium chloride solution) was “freely soluble”; in data set [2] (methyl alcohol), “slightly soluble”; in data set [2] (n-hexane), “practically insoluble”; in data set [2] (water), “freely soluble”.

The values are drawn from US20220040092A1, “Ready to use injectable formulations of Micafungin Sodium” (RK Pharma Solutions LLC, priority 2020, published 2022).
